According to paper doi:10.1101/2025.01.17.633651, “Markovian State Models uncover Casein Kinase 1 dynamics that govern circadian period” (bioRxiv, 2025):

Biological target: CK1 D132A
Assay: Radioactive (32P-ATP) timecourse kinase assay, CK1 D132A mutant
Format: biochemical, human
Details: 200 μM peptide, 20 nM CK1 (primed) or 200 nM CK1 (unprimed), 750 μM ATP, 30 °C (Figure S15B-C)
Description: PER FASP region peptides were synthesized and purified to 95% or higher (SABio). Two independent reaction mixtures of 50 μL containing 200 μM of the FASP or in reaction buffer (25 mM Tris pH 7.5, 7.5 mM MgCl2, 1 mM DTT, 0.1 mg/mL BSA) were preincubated for 5 minutes with or without 20 nM CK1 (for primed FASP) or 200 nM CK1 (for unprimed FASP) and the reaction was started by addition of 750 μM of UltraPure ATP (Promega) containing 1–2 μCi of X-^32p ATP (Perkin Elmer). After incubation of the reaction mix at 30 °C, an 8 μL aliquot of the reaction mix was transferred to P81 phosphocellulose paper (Reaction Biology Corp) at the indicated timepoints. The P81 paper was washed three times with 75 mM of orthophosphoric acid and once with acetone. The air-dried P81 paper was counted for Pi incorporation using a scintillation counter (Perkin Elmer) by Cherenkov counting. Results shown are from four independent assays.

Substance	kinase activity, CK1 D132A compared with CK1 WT
RKKKTEVSAHLSSLTLPGKAESVVSLTSQ [unprimed FASP peptide, synthetic mouse PER2 FASP region peptide, unprimed CK1 substrate]	dramatic loss in activity
RKKKTEVSAHLSSLTLPGKAEpSVVSLTSQ [primed FASP peptide, synthetic mouse PER2 FASP peptide phosphorylated at the priming serine]	more modest effect
